One experiment concerns the target T1, muscarinic M1 receptor (Homo sapiens, UniProt P11229).
T1 construct: expressed in transfected cells
T1 sequence (P11229 1-460): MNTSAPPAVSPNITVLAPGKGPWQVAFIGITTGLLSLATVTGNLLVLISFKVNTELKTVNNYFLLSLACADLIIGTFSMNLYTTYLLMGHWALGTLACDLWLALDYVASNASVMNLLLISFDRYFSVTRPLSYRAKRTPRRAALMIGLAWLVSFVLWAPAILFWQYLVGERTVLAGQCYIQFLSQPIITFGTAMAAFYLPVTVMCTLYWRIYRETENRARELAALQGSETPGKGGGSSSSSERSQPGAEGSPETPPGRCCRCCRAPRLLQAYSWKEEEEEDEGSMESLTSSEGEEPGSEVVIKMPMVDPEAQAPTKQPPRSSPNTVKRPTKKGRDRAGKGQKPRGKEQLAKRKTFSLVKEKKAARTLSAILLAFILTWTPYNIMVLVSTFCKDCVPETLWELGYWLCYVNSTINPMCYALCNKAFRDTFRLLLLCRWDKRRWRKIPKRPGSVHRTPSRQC
As to the kind of experiment: R-SAT functional screen, M1. Type of experiment: cell-based. Conditions: R-SAT; for Emax: read-out: M1 eff (efficacy); for EC50: read-out: M1 pEC50 (converted). The procedure:
(§1) Several compounds disclosed herein were evaluated for activity at muscarinic receptors using Receptor Selection and Amplification Technology (R-SAT) as described in U.S. Pat. No. 5,707,798, the disclosure of which is incorporated herein by reference in its entirety. The efficacy (eff) and potency (expressed as pEC50) of these compounds are presented in Table 1 at M1, M2, and M3 receptors.

The next experiment concerns the target T2, muscarinic M2 receptor (Homo sapiens, UniProt P08172).
T2 construct: expressed in transfected cells
T2 sequence (P08172 1-466): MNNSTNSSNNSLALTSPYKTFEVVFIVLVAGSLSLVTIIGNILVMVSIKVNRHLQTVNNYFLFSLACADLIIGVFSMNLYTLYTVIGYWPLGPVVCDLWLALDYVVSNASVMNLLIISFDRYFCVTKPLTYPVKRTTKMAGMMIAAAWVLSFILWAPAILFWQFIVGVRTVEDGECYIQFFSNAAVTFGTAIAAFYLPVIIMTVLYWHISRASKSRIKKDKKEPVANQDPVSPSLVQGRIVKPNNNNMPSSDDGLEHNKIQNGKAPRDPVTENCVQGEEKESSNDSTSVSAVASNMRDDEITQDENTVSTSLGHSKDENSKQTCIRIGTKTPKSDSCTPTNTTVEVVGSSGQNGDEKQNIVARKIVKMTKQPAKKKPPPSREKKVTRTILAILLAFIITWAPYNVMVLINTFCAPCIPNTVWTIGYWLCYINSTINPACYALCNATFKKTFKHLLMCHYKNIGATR
As to the kind of experiment: R-SAT functional screen, M2. In kind it is cell-based. Conditions: R-SAT; for Emax: read-out: M2 eff (efficacy); for EC50: read-out: M2 pEC50 (converted). The procedure:
as §1

SMILES strings stand for the structures.

On to `Clc1ccc2c(c1)C=C(N1CCNCC1)c1ccccc1N2` [2-Chloro-10-piperazin-1-yl-5H-dibenzo[b,f]azepin], for which the Emax amounted to 2% at muscarinic M1 receptor and 3% at muscarinic M2 receptor.

With `Clc1ccc2c(c1)C(N1CCNCC1)=Nc1ccccc1N2` [2-Chloro-11-(piperazin-1-yl)-5H-dibenzo[b,e][1,4]diazepine], the Emax at muscarinic M1 receptor is -5%; on muscarinic M2 receptor, 8%.

With `FC(F)(F)c1ccc2c(c1)N=C(N1CCNCC1)c1cc(Cl)ccc1N2` [2-Chloro-11-(piperazin-1-yl)-8-trifluoromethyl-5H-dibenzo[b,e][1,4]diazepine], the Emax at muscarinic M1 receptor worked out at 10%; on muscarinic M2 receptor it was 19%.

With `Clc1ccc2c(c1)N=C(N1CCNCC1)c1cc(I)ccc1N2` [2-Iodo-8-chloro-11-(piperazin-1-yl)-5H-dibenzo[b,e][1,4]diazepine], the figures for the Emax at muscarinic M1 receptor and on muscarinic M2 receptor were 3% and 10%, respectively.

For `Cc1ccc2c(c1)C(N1CCNCC1)=Nc1ccccc1N2` [2-Methyl-11-(piperazin-1-yl)-5H-dibenzo[b,e][1,4]diazepine], the Emax at muscarinic M1 receptor was found to be 1%; on muscarinic M2 receptor it was 9%.

`Cc1ccc2c(c1)C(N1CCNCC1)=Nc1cc(C(F)(F)F)ccc1N2` [2-Methyl-11-(piperazin-1-yl)-8-trifluoromethyl-5H-dibenzo[b,e][1,4]diazepine]: the Emax came out at 15% at muscarinic M1 receptor and 14% on muscarinic M2 receptor.

Consider `Clc1ccc2c(c1)Nc1cc(Cl)ccc1C(N1CCNCC1)=N2` [3,7-Dichloro-11-(piperazin-1-yl)-5H-dibenzo[b,e][1,4]diazepine], for which the results for the Emax at muscarinic M1 receptor and at muscarinic M2 receptor were 15% and 19%, respectively.

With `Clc1ccc2c(c1)N=C(N1CCNCC1)c1ccc(Cl)cc1N2` [3,8-Dichloro-11-(piperazin-1-yl)-5H-dibenzo[b,e][1,4]diazepine], the results for the Emax at muscarinic M1 receptor and at muscarinic M2 receptor were 34% and 58%, respectively. The EC50 at muscarinic M1 receptor was 126 nM; on muscarinic M2 receptor it was 1580 nM.

Consider `Clc1ccc2c(c1)Nc1ccccc1N=C2N1CCNCC1` [3-Chloro-11-(piperazin-1-yl)-5H-dibenzo[b,e][1,4]diazepine], for which, on muscarinic M1 receptor, the Emax amounted to 16%. Also, on muscarinic M2 receptor, the Emax turned out to be 27% and the EC50 was 2000 nM.

For `Fc1ccc2c(c1)N=C(N1CCNCC1)c1ccccc1C2` [3-Fluoro-6-piperazin-1-yl-11H-dibenzo[b,e]azepine], at muscarinic M1 receptor, the Emax came to 23%. Further, on muscarinic M2 receptor, the Emax stood at 55% and the EC50 is 794 nM.

For the compound `C=CCN1c2ccc(Cl)cc2N=C(N2CCNCC2)c2ccccc21` [5-Allyl-8-chloro-11-(piperazin-1-yl)-5H-dibenzo[b,e][1,4]diazepine], the Emax on muscarinic M1 receptor came to 12%. Moreover, on muscarinic M2 receptor, the Emax was 46% and the EC50 is 1580 nM.

Turning to `Clc1ccc2c(c1)N=C(C1CCNCC1)c1ccccc1N2Cc1ccccc1` [5-Benzyl-8-chloro-11-(piperidin-4-yl)-5H-dibenzo[b,e][1,4]diazepine], the Emax is 12% at muscarinic M1 receptor and 5% on muscarinic M2 receptor.

Consider `Clc1cc2c(cc1Cl)Nc1ccccc1C(N1CCNCC1)=N2` [7,8-Dichloro-11-(piperazin-1-yl)-5H-dibenzo[b,e][1,4]diazepine], for which, at muscarinic M1 receptor, the Emax was found to be 32% and the EC50 was 79.4 nM. For the same compound, the Emax at muscarinic M2 receptor came out at 8%.

Consider `CC1CC(N2CCNCC2)=Nc2cc(Br)ccc2N1` (stereo not drawn) [7-Bromo-2-methyl-(piperazin-1-yl)-2,3-dihydro-1H-benzo[b][1,4]diazepine], for which the results for the Emax on muscarinic M1 receptor and on muscarinic M2 receptor were 16% and 23%, respectively.

As to `Brc1ccc2c(c1)N=C(N1CCNCC1)CC(c1ccccc1)N2` (stereo not drawn) [7-Bromo-2-phenyl-4-(piperazine-1-yl)-2,3-dihydro-1H-benzo[b][1,4]diazepine], the Emax on muscarinic M1 receptor came to 3%; on muscarinic M2 receptor, 19%.

As for `Brc1ccc2c(c1)N=C(N1CCNCC1)CCN2` [7-Bromo-4-(piperazin-1-yl)-2,3-dihydro-1H-benzo[b][1,4]diazepine], on muscarinic M1 receptor, the Emax amounted to 56% and the EC50 is 2510 nM. The Emax on muscarinic M2 receptor was 3%.

The values above are taken from US20090239840A1, “AMINO SUBSTITUTED DIARYL[a,d]CYCLOHEPTENE ANALOGS AS [sequence] AGONISTS AND METHODS OF TREATMENT OF NEUROPSYCHIATRIC DISORDERS” (ACADIA PHARMACEUTICALS, INC., priority 2003, published 2009).
